# Experiments:
# [1] = system: Mycobacterium tuberculosis; assay: Antimycobacterial activity against Mycobacterium tuberculosis H37Rv assessed as inhibition of bacterial growth incubated for 7 to 14 days by MABA assay; type: functional; settings: time 7-14 day
# [2] = Aqueous solubility of compound at pH 7.4; type: physicochemical; settings: buffer
# [3] = system: Mycolicibacterium smegmatis; assay: Antimycobacterial activity against Mycobacterium smegmatis ATCC607 assessed as inhibition of bacterial growth measured after 48 hrs by broth microdilution method; type: functional
# [4] = system: Mycobacterium tuberculosis; assay: Antimycobacterial activity against Mycobacterium tuberculosis H37Rv mc2 6206 assessed as inhibition of bacterial growth measured after 7 days by visual analysis; type: functional; settings: H37Rv mc2 6206, 168 h, time 7 day
# [5] = Aqueous solubility of compound at pH 7.4 measured for 1 hr by UV-plate reader analysis; type: physicochemical; settings: buffer
# [6] = system: Mycobacterium tuberculosis; assay: Antibacterial activity against Mycobacterium tuberculosis H37Rv assessed as bacterial growth inhibition; type: functional
# [7] = system: Mycobacterium tuberculosis; assay: Antibacterial activity against Mycobacterium tuberculosis H37Rv assessed as reduction in microbial growth; type: functional
# [8] = system: Mycobacterium tuberculosis; assay: Antimycobacterial activity against Mycobacterium tuberculosis H37Rv assessed as reduction in bacterial cell growth by resazurin reduction method; type: functional
# [9] = Aqueous solubility of compound at pH 2.0 measured for 1 hr by UV-plate reader analysis; type: physicochemical; settings: buffer
# [10] = Aqueous solubility of compound in PBS at pH 6.5 incubated for 24 hrs by HPLC-MS/MS analysis; type: physicochemical
# [11] = system: Mycobacterium tuberculosis; assay: Antibacterial activity against Mycobacterium tuberculosis H37Rv assessed as inhibition of bacterial growth incubated for 6 days by microplate alamar blue assay; type: functional; settings: 144 h, time 6 day
# [12] = system: Mycobacterium tuberculosis; assay: Antimycobacterial activity against Mycobacterium tuberculosis K204 assessed as inhibition of bacterial growth measured after 6 days by alamar blue dye based assay; type: functional; settings: K204, 144 h, time 6 day
# [13] = Aqueous solubility of compound at pH 7.4 by HPLC-MS/MS analysis; type: physicochemical; settings: buffer
# Mycobacterium avium = assay: Antibacterial activity against Mycobacterium avium ATCC 25291 assessed as inhibition of bacterial growth incubated for 2 to 3 weeks by resazurin dye based assay; type: functional; settings: time 2-3 weeks
# [14] = system: Mycolicibacterium smegmatis; assay: Antimycobacterial activity against Mycobacterium smegmatis 700084 assessed as inhibition of microbial growth incubated for 48 hrs by resazurin dye based broth microdilution method; type: functional
# Acinetobacter baumannii = assay: Antibacterial activity against Acinetobacter baumannii harboring RpoB H535Q mutant assessed as fold change in MIC incubated for 20 hrs by CLSI based microbroth dilution method; type: functional
structure (smiles),measurement,setting,value
O=[N+]([O-])c1cn2c(n1)OC[C@@H](OCc1ccc(-c3ccc(OC(F)(F)F)c(F)c3)nc1)C2,MIC,[1],0.025 µM
same,solubility,[2],3 µg/mL
C[C@]1(COc2ccc(N3CCC(Oc4ccc(OC(F)(F)F)cc4)CC3)cc2)Cn2cc([N+](=O)[O-])nc2O1,MIC,[3],0.03 µg/mL
same,MIC,[4],0.007 µg/mL
C[C@]1(COc2ccc(S(=O)(=O)N3CCOCC3)cc2)Cn2cc([N+](=O)[O-])nc2O1,solubility at 1 h,[5],20 µg/mL
same,MIC,[6],0.37 µg/mL
C[C@]1(COc2ccc(-n3cc(COc4ccc(OC(F)(F)F)cc4)nn3)cc2)Cn2cc([N+](=O)[O-])nc2O1,solubility at 1 h,[5],< 1 µg/mL
same,MIC,[7],0.12 µg/mL
C[C@]1(CN2CCc3nc(-c4ccccc4)ccc3C2)Cn2cc([N+](=O)[O-])nc2O1,MIC,[8],< 0.031 µg/mL
same,solubility at 1 h,[9],143 µM
same,solubility at 24 h,[10],9.41 µM
C[C@]1(CN2CCc3nc(-c4ccc(F)cc4)ccc3C2)Cn2cc([N+](=O)[O-])nc2O1,MIC,[8],0.25 µg/mL
same,solubility at 1 h,[9],130 µM
same,solubility at 24 h,[10],3.35 µM
C[C@]1(CN2CCc3nc(-c4cc(F)c(F)c(F)c4)ccc3C2)Cn2cc([N+](=O)[O-])nc2O1,MIC,[8],0.08 µg/mL
same,solubility at 1 h,[9],> 200 µM
same,solubility at 24 h,[10],< 1 µM
COc1nc2ccc(C#N)cc2cc1[C@H](c1ccccc1)[C@](O)(CCN(C)C)c1ccccc1,MIC,[11],0.09 µg/mL
O=[N+]([O-])c1cn2c(n1)OC[C@@H](OCc1nnn(-c3ccc(OC(F)(F)F)cc3)n1)C2,MIC,[12],0.035 µM
O=[N+]([O-])c1cn2c(n1)OC[C@@H](OCc1ccn(-c3ccc(OC(F)(F)F)cc3)n1)C2,MIC,[12],0.05 µM
Cn1nc(-c2ccc(OC(F)(F)F)cc2)cc1CO[C@@H]1COc2nc([N+](=O)[O-])cn2C1,MIC,[12],0.06 µM
same,solubility,[13],23 µg/mL
O=[N+]([O-])c1cn2c(n1)OC[C@@H](OCc1ccc(-c3ccc(OC(F)(F)F)cc3)cc1)C2,MIC,Mycobacterium avium,0.035 µM
O=[N+]([O-])c1cn2c(n1)OC[C@@H](OCc1ccc(-c3ccc(OC(F)(F)F)c(Cl)c3)cc1)C2,MIC,Mycobacterium avium,0.03 µM
O=[N+]([O-])c1cn2c(n1)OC[C@@H](OCc1ccc(-c3ccc(OC(F)(F)F)c(F)c3)cc1)C2,MIC,Mycobacterium avium,0.03 µM
COc1nc2ccc(Br)cc2cc1[C@@H](c1ccccc1)[C@@](O)(CCN(C)C)c1cccc2ccccc12 [BEDAQUILINE],MIC,[3],0.015 µg/mL
O=[N+]([O-])c1cn2c(n1)OC[C@@H](OCc1ccc(OC(F)(F)F)cc1)C2 [PRETOMANID],MIC,[3],0.03 µg/mL
same,MIC,[14],0.03 µg/mL
same,fold change (FC),Acinetobacter baumannii,>13
O=[N+]([O-])c1cn2c(n1)OC[C@@H](OCc1ccc(-c3ccc(OC(F)(F)F)cc3)nc1)C2 [TBA-354],MIC,[1],0.005 µM
same,solubility,[2],2.3 µg/mL
